From patent publication US20070049593A1 (priority 2004, published 2007) come the findings set out here.

The experiment concerns the target T1, HCV polymerase (Hepatitis C virus genotype 1b, UniProt P26663).
T1 construct: a region encoding NS5B (J Virol 1991 March, 65(3), 1105-13, 544 amino acids after deletion of 47 amino acids on the C-terminal); 6xHis (C); made in house; host or cells: Escherichia coli
Put plainly: biochemical. More on the design: species or system HCV BK strain. Summed up: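 His-tagged NS5B (BK strain, 47-aa C-terminal deletion, E. coli-expressed) at 0.5 μg/ml copied 5 μg/ml run-off RNA bearing the HCV 3′ UTR with 2 μM UTP plus [3H]UTP, 50 μM ATP/GTP, in pH 7.5 Tris with 5 mM MgCl2, 25 °C, 90 min. TCA-precipitated RNA was counted and IC50 calculated.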

For orientation: IC50 means the point on the concentration scale where inhibition reaches its midpoint.

Where a name gives a salt, the structure may show the parent alone. Read-outs that look alike come from different tables or passages of the source.

T1 sequence (P26663 2420-2963): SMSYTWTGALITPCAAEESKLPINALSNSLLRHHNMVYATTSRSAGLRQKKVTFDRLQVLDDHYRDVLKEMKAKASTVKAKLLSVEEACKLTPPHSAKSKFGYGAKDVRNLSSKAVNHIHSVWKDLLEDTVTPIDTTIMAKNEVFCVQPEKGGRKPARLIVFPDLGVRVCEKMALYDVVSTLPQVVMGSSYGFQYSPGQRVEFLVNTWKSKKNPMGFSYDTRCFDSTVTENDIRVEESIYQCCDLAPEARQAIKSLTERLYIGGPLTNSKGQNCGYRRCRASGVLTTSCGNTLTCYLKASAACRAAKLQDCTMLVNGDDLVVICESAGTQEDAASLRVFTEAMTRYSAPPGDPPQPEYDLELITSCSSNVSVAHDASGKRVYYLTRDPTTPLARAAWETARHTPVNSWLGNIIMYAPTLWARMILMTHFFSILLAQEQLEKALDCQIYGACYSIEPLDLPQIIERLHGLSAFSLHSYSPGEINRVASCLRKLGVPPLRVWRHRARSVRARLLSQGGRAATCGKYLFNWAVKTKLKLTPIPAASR

Regarding `Cc1ccc2c(c1)N(CCC1CCCCC1)CCn1c-2c(C2CCCCC2)c2ccc(C(=O)O)cc21` [Example 1-492, 13-cyclohexyl-5-(2-cyclohexylethyl)-3-methyl-6,7-dihydro-5H-benzo[5,6][1,4]diazepino[7,1-a]indole-10-carboxylic acid], the IC50 was less than 0.1 µM.
Still for that read-out and setting: then `CCN(CC)CCCCN1CCn2c(c(C3CCCCC3)c3ccc(C(=O)O)cc32)-c2ccc(C)cc21` [Example 1-493, 13-cyclohexyl-5-(4-diethylaminobutyl)-3-methyl-6,7-dihydro-5H-benzo[5,6][1,4]diazepino[7,1-a]indole-10-carboxylic-acid dihydrochloride], with less than 0.1 µM; and `Cc1ccc2c(c1)N(CCN1CCC[C@@H](CCO)C1)CCn1c-2c(C2CCCCC2)c2ccc(C(=O)O)cc21` [Example 1-494, 13-cyclohexyl-5-{2-[(S)-3-(2-hydroxyethyl)piperidin-1-yl)ethyl}-3-methyl-6,7-dihydro-5H-benzo[5,6][1,4]diazepino[7,1-a]indole-10-carboxylic acid dihydrochloride], with less than 0.1 µM; and `O=C(O)c1ccc2c(c1)N(CCN1CCCCC1)CCn1c-2c(C2CCCCC2)c2ccc(C(=O)O)cc21` [Example 1-495, 13-cyclohexyl-5-[2-(piperidin-1-yl)ethyl]-6,7-dihydro-5H-benzo[5,6][1,4]diazepino[7,1-a]indole-3,10-dicarboxylic acid monohydrochloride], with less than 0.1 µM.
`CN1CCn2c(c(C3CCCCC3)c3ccc(C(=O)O)cc32)-c2ccc(OCCCN3CCCCC3)cc21` [Example 1-496, 13-cyclohexyl-5-methyl-3-[3-(piperidin-1-yl)propoxy]-6,7-dihydro-5H-benzo[5,6][1,4]diazepino[7,1-a]indole-10-carboxylic acid dihydrochloride] displayed an IC50 of less than 0.1 µM.
Still for that read-out and setting: the same measure for `O=C(O)c1ccc2c(C3CCCCC3)c3n(c2c1)CCN(CCN1CCC[C@@H](COc2ccccc2)C1)c1ccccc1-3` [Example 1-497, 13-cyclohexyl-5-[2-((R)-3-phenoxymethylpiperidin-1-yl)ethyl]-6,7-dihydro-5H-benzo[5,6][1,4]diazepino[7,1-a]indole-10-carboxylic acid dihydrochloride]: less than 0.1 µM.
As for `CCOc1ccc2c(c1)N(CCN1CCCCCCC1)CCn1c-2c(C2CCCCC2)c2ccc(C(=O)O)cc21` [Example 1-498, 5-[2-(azocan-1-yl)ethyl]-13-cyclohexyl-3-ethoxy-6,7-dihydro-5H-benzo[5,6][1,4]diazepino[7,1-a]indole-10-carboxylic acid monohydrochloride], where the note is “25° C., 90 min, [5,6-3H]UTP incorporation into RNA, read-out: HCV polymerase inhibitory activity IC50”, the IC50 is less than 0.1 µM.
`CCOc1ccc2c(c1)N(CCN1CCC[C@@H](COC)C1)CCn1c-2c(C2CCCCC2)c2ccc(C(=O)O)cc21` [Example 1-499, 13-cyclohexyl-3-ethoxy-5-[2-((R)-3-methoxymethylpiperidin-1-yl)ethyl]-6,7-dihydro-5H-benzo[5,6][1,4]diazepino[7,1-a]indole-10-carboxylic acid dihydrochloride]: the IC50 is less than 0.1 µM.
Still for that read-out and setting: then `CCOc1ccc2c(c1)N(CCN1CCCOCC1)CCn1c-2c(C2CCCCC2)c2ccc(C(=O)O)cc21` [Example 1-500, 13-cyclohexyl-3-ethoxy-5-[2-(1,4-oxazepan-4-yl)ethyl]-6,7-dihydro-5H-benzo[5,6][1,4]diazepino[7,1-a]indole-10-carboxylic acid dihydrochloride], with less than 0.1 µM.
Same read-out and setting: then `CCOc1ccc2c(c1)N(CCN1CCC(CCOC)CC1)CCn1c-2c(C2CCCCC2)c2ccc(C(=O)O)cc21` [Example 1-501, 13-cyclohexyl-3-ethoxy-5-{2-[4-(2-methoxyethyl)piperidin-1-yl]ethyl}-6,7-dihydro-5H-benzo[5,6][1,4]diazepino[7,1-a]indole-10-carboxylic acid dihydrochloride], with less than 0.1 µM; and `COCCC1CCN(CCN2CCn3c(c(C4CCCCC4)c4ccc(C(=O)O)cc43)-c3ccc(C)cc32)CC1` [Example 1-502, 13-cyclohexyl-5-{2-[4-(2-methoxyethyl)piperidin-1-yl]ethyl}-3-methyl-6,7-dihydro-5H-benzo[5,6][1,4]diazepino[7,1-a]indole-10-carboxylic acid dihydrochloride], with less than 0.1 µM.
The same measure, in the same setting: the same measure for `CCN(CC)CC(O)CN1CCn2c(c(C3CCCCC3)c3ccc(C(=O)O)cc32)-c2ccc(Cl)cc21` (stereo not shown) [Example 1-503, 3-chloro-13-cyclohexyl-5-(3-diethylamino-2-hydroxypropyl)-6,7-dihydro-5H-benzo[5,6][1,4]diazepino[7,1-a]indole-10-carboxylic acid dihydrochloride]: less than 0.1 µM; for `CC(=O)N1CCCN(CCN2CCn3c(c(C4CCCCC4)c4ccc(C(=O)O)cc43)-c3ccc(C)cc32)CC1` [Example 1-504, 5-[2-(4-acetyl-1,4-diazepan-1-yl)ethyl]-13-cyclohexyl-3-methyl-6,7-dihydro-5H-benzo[5,6][1,4]diazepino[7,1-a]indole-10-carboxylic acid dihydrochloride]: less than 0.1 µM; for `Cc1ccc2c(c1)NCCn1c-2c(C2CCCCC2)c2ccc(S(N)(=O)=O)cc21` [Example 1-506, 13-cyclohexyl-3-methyl-6,7-dihydro-5H-benzo[5,6][1,4]diazepino[7,1-a]indole-10-sulfonamide]: 0.1 to 1 µM.
Molecule `Cc1ccc2c(c1)N(CCN1CCCCC1)CCn1c-2c(C2CCCCC2)c2ccc(S(N)(=O)=O)cc21` [Example 1-507, 13-cyclohexyl-3-methyl-5-[2-(piperidin-1-yl)ethyl]-6,7-dihydro-5H-benzo[5,6][1,4]diazepino[7,1-a]indole-10-sulfonamide dihydrochloride] returned an IC50 of 0.1 to 1 µM.
Same read-out and setting: then `COC[C@@H]1CCCN(CCN2CCn3c(c(C4CCCCC4)c4ccc(C(=O)O)cc43)-c3ccc(OC)cc32)C1` [Example 1-508, 13-cyclohexyl-3-methoxy-5-[2-((R)-3-methoxymethylpiperidin-1-yl)ethyl]-6,7-dihydro-5H-benzo[5,6][1,4]diazepino[7,1-a]indole-10-carboxylic acid dihydrochloride], with less than 0.1 µM; and `COC[C@@H]1CCCN(CCN2CCn3c(c(C4CCCCC4)c4ccc(C(=O)O)cc43)-c3ccc(F)cc32)C1` [Example 1-509, 13-cyclohexyl-3-fluoro-5-[2-((R)-3-methoxymethylpiperidin-1-yl)ethyl]-6,7-dihydro-5H-benzo[5,6][1,4]diazepino[7,1-a]indole-10-carboxylic acid dihydrochloride], with less than 0.1 µM.
Still for that read-out and setting: then `COc1ccc2c(c1)N(CCN1CCCOCC1)CCn1c-2c(C2CCCCC2)c2ccc(C(=O)O)cc21` [Example 1-510, 13-cyclohexyl-3-methoxy-5-[2-(1,4-oxazepan-4-yl)ethyl]-6,7-dihydro-5H-benzo[5,6][1,4]diazepino[7,1-a]indole-10-carboxylic acid dihydrochloride], with less than 0.1 µM; and `CCN(CCCN1CCn2c(c(C3CCCCC3)c3ccc(C(=O)O)cc32)-c2ccc(C)cc21)CCOC` [Example 1-511, 13-cyclohexyl-5-{3-[N-ethyl-N-(2-methoxyethyl)amino]propyl}-3-methyl-6,7-dihydro-5H-benzo[5,6][1,4]diazepino[7,1-a]indole-10-carboxylic acid dihydrochloride], with less than 0.1 µM.
Still for that read-out and setting: then `CCN(CCO)CCCN1CCn2c(c(C3CCCCC3)c3ccc(C(=O)O)cc32)-c2ccc(C)cc21` [Example 1-512, 13-cyclohexyl-5-{3-[N-ethyl-N-(2-hydroxyethyl)amino]propyl}-3-methyl-6,7-dihydro-5H-benzo[5,6][1,4]diazepino[7,1-a]indole-10-carboxylic acid dihydrochloride], with less than 0.1 µM.
`CCc1ccc2c(c1)N(CCCN(CC)CCCOC)CCn1c-2c(C2CCCCC2)c2ccc(C(=O)O)cc21` [Example 1-513, 13-cyclohexyl-5-{3-[N-ethyl-N-(3-methoxypropyl)amino]propyl}-3-ethyl-6,7-dihydro-5H-benzo[5,6][1,4]diazepino[7,1-a]indole-10-carboxylic acid dihydrochloride] had an IC50 of less than 0.1 µM.
For `CCOCC[C@@H]1CCCN(CCN2CCn3c(c(C4CCCCC4)c4ccc(C(=O)O)cc43)-c3ccc(C)cc32)C1` [Example 1-514, 13-cyclohexyl-5-{2-[(S)-3-(2-ethoxyethyl)piperidin-1-yl]ethyl}-3-methyl-6,7-dihydro-5H-benzo[5,6][1,4]diazepino[7,1-a]indole-10-carboxylic acid dihydrochloride], the IC50 was less than 0.1 µM.
Still for that read-out and setting: then `CCOCC[C@@H]1CCCN(CCN2CCn3c(c(C4CCCCC4)c4ccc(C(=O)O)cc43)-c3ccc(OCC)cc32)C1` [Example 1-515, 13-cyclohexyl-3-ethoxy-5-{2-[(S)-3-(2-ethoxyethyl)piperidin-1-yl]ethyl}-6,7-dihydro-5H-benzo[5,6][1,4]diazepino[7,1-a]indole-10-carboxylic acid dihydrochloride], with less than 0.1 µM; and `Cc1ccc2c(c1)N(C)CCn1c-2c(C2CCCCC2)c2ccc(S(N)(=O)=O)cc21` [Example 1-517, 13-cyclohexyl-3,5-dimethyl-6,7-dihydro-5H-benzo[5,6][1,4]diazepino[7,1-a]indole-10-sulfonamide], with 0.1 to 1 µM; and `COC(=O)N1CCCN(CCN2CCn3c(c(C4CCCCC4)c4ccc(C(=O)O)cc43)-c3ccc(C)cc32)CC1` [Example 1-518, 13-cyclohexyl-5-[2-(4-methoxycarbonyl-1,4-diazepan-1-yl)ethyl]-3-methyl-6,7-dihydro-5H-benzo[5,6][1,4]diazepino[7,1-a]indole-10-carboxylic acid dihydrochloride], with less than 0.1 µM.
